From the C3SDB collision cross section collection
Where “and” joins values, the source holds several entries; their conditions need not be identical. Equal values may be shown once.

Experiments:
[1] = instrument: DT, single field, calibrated with Agilent tune mix (Agilent)
[2] = instrument: DT, single field, calibrated with ESI Low Concentration Tuning Mix (Agilent)
[3] = instrument: TW, calibrated with polyalanine and drug standards

Row | Structure (SMILES) | collision cross section (N2) ([2]; [M+Na]+) | collision cross section (N2) ([2]; [M+H]+) | collision cross section (N2) ([2]; [M-H]-) | further results
1 | NC(Cc1ccccc1O)C(=O)O (racemic) [DL-O-tyrosine] |  |  |  | collision cross section (N2) ([1]; [M+H]+): 141.4 Å²; collision cross section (N2) ([1]; [M-H]-): 134.25 Å²
2 | Cn1c(=O)[nH]c2[nH]c(=O)n(C)c2c1=O [1,7-Dimethyluric acid] |  |  |  | collision cross section (N2) ([1]; [M-H]-): 134.06 Å²
3 | CC(=O)[C@@H](O)[C@H](O)COP(=O)(O)O [1-Deoxy-D-xylulose 5-phosphate] |  |  |  | collision cross section (N2) ([1]; [M+Na]+): 144.9 Å²; collision cross section (N2) ([1]; [M-H]-): 134.48 Å²
4 | C[n+]1cccc(C(N)=O)c1 [1-Methylnicotinamide] |  |  |  | collision cross section (N2) ([1]; [M]+): 126.4 Å²
5 | Nc1ccn([C@H]2C[C@H](O)[C@@H](COP(=O)(O)OP(=O)(O)O)O2)c(=O)n1 [2'-Deoxycytidine diphosphate] |  |  |  | collision cross section (N2) ([1]; [M+Na]+): 174.5 Å²; collision cross section (N2) ([1]; [M-H]-): 170.97 Å²
6 | Nc1nc(=O)c2ncn([C@H]3C[C@H](O)[C@@H](COP(=O)(O)O)O3)c2[nH]1 [2'-Deoxyguanosine 5'-monophosphate] |  |  |  | collision cross section (N2) ([1]; [M+Na-2H]-): 167.93 Å²; collision cross section (N2) ([1]; [M+Na]+): 169.7 Å²
7 | O=c1nc[nH]c2c1ncn2[C@H]1C[C@H](O)[C@@H](COP(=O)(O)O)O1 [2'-Deoxyinosine 5'-monophosphate] |  |  |  | collision cross section (N2) ([1]; [M+Na-2H]-): 161.59 Å²; collision cross section (N2) ([1]; [M+Na]+): 166.8 Å²
8 | CO[C@@H]1[C@H](O)[C@@H](CO)O[C@H]1n1cnc2c(N)ncnc21 [2'-O-methyladenosine] |  |  |  | collision cross section (N2) ([1]; [M+Na]+): 168.7 Å²; collision cross section (N2) ([1]; [M-H]-): 158.37 Å²
9 | O=C(O)CNC(=O)c1ccco1 [2-Furoylglycine] |  |  |  | collision cross section (N2) ([1]; [M-H]-): 134.65 Å²
10 | CC(C)C(O)C(=O)O (stereo unspecified) [2-Hydroxy-3-methylbutyric acid] |  |  |  | collision cross section (N2) ([1]; [M-H]-): 118.65 Å²
11 | NC(=O)CCCCC1CCSS1 (stereo unspecified) [LIPOAMIDE] | 150.4 Å² |  |  | collision cross section (N2) ([3]; [M+H]+): 139.3 Å²
12 | CSCC[C@H](N)C(=O)O [METHIONINE] |  | 133.1 Å² | 132 Å² | 
13 | COC(=O)CCCN [METHYL 4-AMINOBUTYRATE] |  | 124.6 Å² |  | 
14 | CO[C@@H]1O[C@H](CO)[C@H](O)[C@H](O)[C@H]1O [METHYL GALACTOSIDE] | 145.4 Å² |  |  | 
15 | CC(C)=CCNc1ncnc2nc[nH]c12 [N6-(DELTA2-ISOPENTENYL)-ADENINE] |  | 145.5 Å² | 150.5 Å² | 
16 | CN(C)C(N)=NCCC[C@H](N)C(=O)O [N,N-DIMETHYLARGININE] | 157.2 Å² | 143.9 Å² |  | 
17 | CC(=O)N[C@@H](C)C(=O)O [N-ACETYLALANINE] | 134.7 Å² |  |  | 
18 | CC(=O)N[C@@H]1[C@@H](O)[C@@H](O)[C@@H](CO)O[C@@H]1O [N-ACETYLGALACTOSAMINE] | 150.3 Å² |  |  | collision cross section (N2) ([2]; [M+K]+): 151.4 Å²
19 | CC(=O)N[C@@H]1[C@@H](O)[C@H](O)[C@@H](CO)O[C@H]1O [N-ACETYLGLUCOSAMINE] | 150.7 Å² and 157.8 Å² |  | 152.5 Å² | 
20 | CC(=O)N[C@@H]1C(O)O[C@H](CO)[C@@H](O)[C@@H]1O (stereo partly specified) [N-ACETYLMANNOSAMINE] | 150.2 Å² |  |  | 
21 | CC(=O)N1CCC[C@H]1C(=O)O [N-ACETYLPROLINE] | 140.3 Å² |  | 133.7 Å² | collision cross section (N2) ([3]; [M+Na]+): 136.9 Å²
22 | CC(=O)NCCCCN [N-ACETYLPUTRESCINE] | 134.5 Å² | 128.6 Å² |  | 
23 | CC(=O)N[C@@H](CO)C(=O)O [N-ACETYLSERINE] | 133.4 Å² |  | 127.2 Å² | 
24 | CC(=O)NCCc1c[nH]c2ccc(O)cc12 [N-ACETYLSEROTONIN] | 153.5 Å² | 149.6 Å² | 150.5 Å² | 
25 | CC(=O)NC(Cc1c[nH]c2ccccc12)C(=O)O (stereo unspecified) [N-ACETYLTRYPTOPHAN] | 158.5 Å² | 153.8 Å² | 158.3 Å² | 
26 | CC(=O)NC(CCCCN)C(=O)O (stereo not drawn) [N-ALPHA-ACETYLLYSINE] | 144.4 Å² | 145.5 Å² | 145 Å² | 
27 | CN[C@H](CC(=O)O)C(=O)O [N-METHYLASPARTATE] | 134.7 Å² | 130 Å² | 124 Å² | 

Row | Structure (SMILES) | collision cross section (N2) ([2]; [M+Na]+) | collision cross section (N2) ([2]; [M+H]+) | collision cross section (N2) ([2]; [M-H]-) | further results
28 | NC(=O)c1ccc[n+]([C@@H]2O[C@H](COP(=O)(O)OP(=O)(O)OC[C@H]3O[C@@H](n4cnc5c(=O)nc[nH]c54)[C@H](O)[C@@H]3O)[C@@H](O)[C@H]2O)c1 [NICOTINAMIDE HYPOXANTHINE DINUCLEOTIDE] | 229.7 Å² | 221.1 Å² | 217.7 Å² | collision cross section (N2) ([2]; [M+Na-2H]-): 217.2 Å²
29 | CCC[C@H](N)C(=O)O [NORVALINE] | 133.1 Å² | 120.9 Å² | 142 Å² | 
30 | CC[C@H](NC(=O)CC[C@H]([NH3+])C(=O)[O-])C(=O)NCC(=O)[O-] [OPHTHALMATE] | 163.4 Å² | 164.5 Å² | 160.9 Å² | collision cross section (N2) ([2]; [M+Na-2H]-): 163.7 Å²
31 | O=C([O-])c1cc(=O)[nH]c(=O)[nH]1 [OROTATE] |  |  | 121.5 Å² | 
32 | O=C1CC[C@@H](C(=O)O)N1 [OXOPROLINE] |  | 130.3 Å² | 124.1 Å² | 
33 | O=C(O)Cc1ccc(O)cc1 [P-HYDROXYPHENYLACETATE] |  |  | 128.6 Å² | 
34 | OC[C@H]1O[C@H](OC[C@H]2OC(O)(CO)[C@@H](O)[C@@H]2O)[C@H](O)[C@@H](O)[C@@H]1O (stereo partly specified) [PALATINOSE] | 176 Å² |  | 177.9 Å² | collision cross section (N2) ([2]; [M+K]+): 177.6 Å²
35 | N[C@@H](Cc1ccccc1)C(=O)O [PHENYLALANINE] | 138.3 Å² |  | 139.4 Å² | 
36 | Cc1ncc(CO)c(CN)c1O [PYRIDOXAMINE] | 144.1 Å² | 133.7 Å² | 133.9 Å² | 
37 | Oc1ccccc1O [PYROCATECHOL] |  |  | 114.5 Å² | 
38 | O=C1CC[C@@H](C(=O)O)N1 [PYROGLUTAMATE] |  | 130.1 Å² |  | 
39 | CC1=C(/C=C/C(C)=C/C=C/C(C)=C/C(=O)O)C(C)(C)CCC1 [RETINOATE] | 181.9 Å² |  |  | 
40 | Nc1ncnc2c1ncn2[C@@H]1O[C@H](CSCC[C@H](N)C(=O)O)[C@@H](O)[C@H]1O [S-ADENOSYLHOMOCYSTEINE] | 189 Å² | 182.9 Å² | 186.4 Å² | collision cross section (N2) ([2]; [M+Na-2H]-): 180.3 Å²
41 | C[S+](CC[C@H](N)C(=O)[O-])C[C@H]1O[C@@H](n2cnc3c(N)ncnc32)[C@H](O)[C@@H]1O (stereo partly specified) [S-ADENOSYLMETHIONINE] |  | 185.7 Å² |  | 
42 | CCCCCCSC[C@H](NC(=O)CC[C@H](N)C(=O)O)C(=O)NCC(=O)O [S-HEXYL-GLUTATHIONE] | 200.9 Å² | 200.5 Å² | 189 Å² | collision cross section (N2) ([2]; [M+Na-2H]-): 192.4 Å²
43 | O=C(O)[C@@H](O)[C@@H](O)[C@H](O)[C@@H](O)C(=O)O [SACCHARATE] | 148.3 Å² |  | 133.3 Å² | collision cross section (N2) ([2]; [M+K]+): 148.8 Å²; collision cross section (N2) ([2]; [M+Na-2H]-): 137.3 Å²
44 | O=C(O)CCCCCCCCC(=O)O [SEBACATE] | 152.7 Å² |  |  | collision cross section (N2) ([2]; [M+Na-2H]-): 146 Å²
45 | C[Se]CCC(N)C(=O)O (stereo unspecified) [SELENOMETHIONINE] | 138.1 Å² | 135.2 Å² | 149.9 Å² | 
46 | NCCc1c[nH]c2ccc(O)cc12 [SEROTONIN] | 146.9 Å² |  |  | 
47 | O=C(O)C1=C[C@@H](O)[C@@H](O)[C@H](O)C1 [SHIKIMATE] |  |  | 136.3 Å² | 
48 | Cc1ncc(C[n+]2csc(CCOP(=O)(O)O)c2C)c(N)n1 [THIAMINE MONOPHOSPHATE] | 176.9 Å² | 171 Å² |  | collision cross section (N2) ([2]; [M+Na-2H]-): 174.3 Å² and 180.2 Å²
49 | C[n+]1cccc(C(=O)[O-])c1 [TRIGONELLINE] | 135.9 Å² | 124 Å² |  | collision cross section (N2) ([3]; [M+H]+): 122.4 Å²
50 | N[C@@H](Cc1ccc(O)cc1)C(=O)O [TYROSINE] | 143.6 Å² | 145.8 Å² | 143.8 Å² | 
51 | O=c1cc[nH]c(=O)[nH]1 [URACIL] |  |  | 112.9 Å² | 
52 | O=c1ccn([C@@H]2O[C@H](COP(=O)(O)OP(=O)(O)O)[C@@H](O)[C@H]2O)c(=O)[nH]1 [URIDINE 5'-DIPHOSPHATE] | 178.5 Å² and 181.7 Å² | 176.9 Å² | 172.9 Å² | collision cross section (N2) ([2]; [M+Na-2H]-): 178.6 Å²
53 | O=C(O)[C@H]1O[C@H](OP(=O)(O)OP(=O)(O)OC[C@H]2O[C@@H](n3ccc(=O)[nH]c3=O)[C@H](O)[C@@H]2O)[C@H](O)[C@@H](O)[C@@H]1O [URIDINE DIPHOSPHATE GLUCURONIC ACID] | 211 Å² |  | 211.9 Å² | collision cross section (N2) ([2]; [M+Na-2H]-): 204.6 Å²
54 | C[C@H](CCC(=O)O)[C@H]1CC[C@H]2[C@@H]3[C@@H](O)C[C@@H]4C[C@H](O)CC[C@]4(C)[C@H]3CC[C@]12C [URSODEOXYCHOLATE] | 198.7 Å² |  | 200.9 Å² | 
